The values below come from patent US20140377219A1, “HIV INHIBITORS” (New york Blood Center, Inc., priority 2011, published 2014).

A short description of series [1]: Cytotoxicity in TZM-bl cells (XTT). The note with it: human; TZM-bl cells, XTT, 3 days; read-out: TZM-bl cells CC50 (μM ± SD). The series is classed as cell-based. How it is done:
(§1) The cytotoxicity of small molecules in TZM-bl cells was measured by a colorimetric method using XTT (sodium 3′-(1-(phenylamino)-carbonyl)-3,4-tetrazolium-bis(4-methoxy-6-nitro)benzenesulfonic acid hydrate), a light yellowish tetrazolium dye. Briefly, 100 μl of a compound at graded concentrations was added to equal volume of cells (10^5/ml) in wells of 96-well plates followed by incubation at 37° C. for 3 days and addition of XTT (PolySciences, Inc., Warrington, Pa.).
In general terms: Tetrazolium dyes change colour on reduction, which living cells bring about.

For series [2], the system named is laboratory-adapted HIV-1 IIIB strain. In words: microbe, parasite or virus in culture. The note with it: Human immunodeficiency virus 1, IIIB, MT2, read-out: MT-2 Cells IC50 (μM ± SD).
Description: (§3) In brief, 1×10^4 MT-2 cells were infected with HIV-1 at 100 TCID50 (50% tissue culture infective dose) (0.01MOI) in 200 μl medium in the presence or absence of small molecules at graded concentrations and incubated overnight. The culture supernatants were then removed and replaced with fresh media. On the fourth day post-infection, 100 μl of culture supernatants were collected from each well, mixed with equal volume of 5% Triton X-100 and tested for p24 antigen by sandwich-ELISA. The percent inhibition of p24 production and IC50 values were calculated by the GraphPad Prism software (GraphPad Software Inc.).
Series [3] in a line: Cytotoxicity in MT-2 cells (XTT). Type of series: cell-based. The note with it: human; MT-2 cells, XTT, four days. How it is done: (§2) Cytotoxicity of small molecules in MT-2 cells and PBMC was measured by the XTT ((sodium 3′-(1-(phenylamino)-carbonyl)-3,4-tetrazolium-bis(4-methoxy-6-nitro)benzene-sulfonic acid hydrate)) method. Briefly, for MT-2 cells, 100 μl of a small molecule at graded concentrations was added to an equal volume of cells (10^5 cells/ml) in 96-well plates followed by incubation at 37° C. for four days, which ran parallel with the neutralization assay in MT-2 (except medium was added instead of virus). In the case of PBMC, 5×10^5 cells/ml was used and the cytotoxicity was measured after seven days. […] The percentage cytotoxicity and the CC50 values were calculated as described above.

The next series relates to TZM-bl cells. Nature of the series: Cytotoxicity in TZM-bl cells (XTT). The note with it: for % toxicity at that dose (number in parenthesis), TZM-bl cells: at the dose given as CC50 bound. The series is classed as cell-based. How it is done:
as §1

The test system of another series is MT-2 cells. Nature of the series: Cytotoxicity in MT-2 cells (XTT). The series is classed as cell-based. On the procedure:
as §2

Series [4] deals with laboratory-adapted HIV-1 IIIB strain. The note with it: read-out: MT-2 Cells IC50 (μM ± SD); multi-cycle assay, MT-2 cells, HIV-1 IIIB.
Description: as §3
[5] abbreviates: MT-2 cells, XTT, four days, read-out: MT-2 Cells CC50.
Setting [6] is: TZM-bl cells, XTT, 3 days, read-out: TZM-bl cells CC50 (μM ± SD).

Counter-ions that a name gives are not always drawn. Like-named read-outs stand apart in the source and are kept apart here. Where only a bound is given, the exact number is not on record here.

`CC1CCCN(c2ccccc2CNC(=O)CCC(=O)Nc2ccc(Cl)cc2)C1` (centres unmarked) [Compound 45, N^1-(4-chlorophenyl)-N^4-(2-(3-methylpiperidin-1-yl)benzyl)succinamide] came in with a melting point of 162 to 163 °C. In addition, the 50% cytotoxic concentration (CC50) at 3 days in series [1] was more than 97 µM. For the same compound, the concentration for half-maximal inhibition (IC50) in series [2] is more than 97 µM. In series [3], this compound registered a CC50 at 4 days of more than 97 µM.
Regarding `CCC(CN1CCOCC1)NC(=O)CCC(=O)Nc1ccc(Cl)cc1` (centres unmarked) [Compound 46, N^1-(4-chlorophenyl)-N^4-(1-morpholinobutan-2-yl)succinamide], the CC50 at 3 days in series [1] is more than 109 µM. The IC50 in series [2] was 33.2 ± 2.2 µM. For the same compound, in series [3], the CC50 at 4 days came to 41.9 ± 1.6 µM.
In the case of `O=C(CCC(=O)Nc1ccc(Cl)cc1)NCc1ccc(S(=O)(=O)N2CCOCC2)cc1` [Compound 42, N^1-(4-chlorophenyl)-N^4-(4-(morpholinosulfonyl)benzyl)succinamide], the melting point was 208 to 209 °C (dec.). Besides, in series [1], the cytotoxic concentration (CC50) at 3 days was approximately 30 µM. Further, in series [2], the half-inhibitory concentration (IC50) stood at 23.9 ± 1.8 µM. It took 21.2 ± 1.5 µM to reach half-maximal cytotoxicity in series [3] (CC50 at 4 days).
On to `CC(=O)N1CCCCC1C(NC(=O)C(=O)Nc1ccc(Cl)cc1)c1nc(C)c(CCO)s1` (centres unmarked) [Compound 13, N^1-((1-acetylpiperidin-2-yl)(5-(2-hydroxyethyl)-4-methylthiazol-2-yl)methyl)-N^2-(4-chlorophenyl)oxalamide], for which the “% toxicity at that dose (number in parenthesis), TZM-bl cells” value (“% toxicity at that dose” below) in the series on TZM-bl cells is on record as 20%. Besides, the concentration for half-maximal inhibition (IC50) in series [2] is more than 52 µM.
In turn, `CCn1cc(NC(=O)C(=O)Nc2ccc(Cl)cc2)cn1` [Compound 17, N^1-(4-chlorophenyl)-N^2-(1-ethyl-1H-pyrazol-4-yl)oxalamide] returned a melting point of 232 to 233 °C. The half-maximal cytotoxic concentration (CC50) in the series with MT-2 cells (setting [5]) was determined as 10.7 ± 1.6 µM.
As for `C[C@@H](NC(=O)C(=O)Nc1ccc(Cl)cc1)[C@H](c1ccccc1)N1CCOCC1` [Compound 19, N^1-(4-chlorophenyl)-N^2-((1S,2R)-1-morpholino-1-phenylpropan-2-yl)oxalamide], in series [2], the half-inhibitory concentration (IC50) was more than 24.9 µM.
The compound `O=C(CCC(=O)Nc1ccc(Cl)cc1)NCCCN1CCCC(O)C1` (centres unmarked) [Compound 43, N^1-(4-chlorophenyl)-N^4-(3-(3-hydroxypiperidin-1-yl)propyl)succinamide] yielded a melting point of 122 to 123 °C. Further, in series [1], the 50% cytotoxic concentration (CC50) at 3 days is approximately 82 µM. In addition, the IC50 in series [2] was approximately 109 µM. Also, the half-maximal cytotoxic concentration (CC50) at 4 days in series [3] was approximately 109 µM.
As to `Cc1nc(C(NC(=O)C(=O)Nc2ccc(F)cc2F)C2CCCCN2)sc1CO` (centres unmarked) [Compound 21, N^1-(2,4-difluorophenyl)-N^2-((5-(hydroxymethyl)-4-methylthiazol-2-yl)(piperidin-2-yl)methyl)oxalamide.HCl], in series [4], the IC50 was approximately 110 µM. Moreover, the CC50 in the series on TZM-bl cells (setting [6]) is more than 87 µM; with MT-2 cells (setting [5]) it was more than 110 µM.
`Cc1ccc(NC(=O)C(=O)NC(c2nc(C)c(CO)s2)C2CCCCN2)c(F)c1` (centres unmarked) [Compound 26, N^1-(2-fluoro-4-methylphenyl)-N^2-((5-(hydroxymethyl)-4-methylthiazol-2-yl)(piperidin-2-yl)methyl)oxalamide.HCl]: the IC50 in series [4] is approximately 66 µM. The CC50 in the series on TZM-bl cells (setting [6]) was more than 88 µM; with MT-2 cells (setting [5]), more than 109 µM.
On to `Cc1nc(C(NC(=O)C(=O)Nc2ccc(Cl)cc2)C2CCNCC2)sc1CCO` (centres unmarked) [Compound 11, N^1-(4-chlorophenyl)-N^2-((5-(2-hydroxyethyl)-4-methylthiazol-2-yl)(piperidin-4-yl)methyl)oxalamide.2HCl], for which the half-inhibitory concentration (IC50) in series [4] is 30.5 ± 3.4 µM. In addition, the CC50 is approximately 85.4 µM in the series on TZM-bl cells and more than 78.5 µM in the series on MT-2 cells.
The compound `O=C(CCC(=O)Nc1ccc(Cl)cc1)NCCCN1CCC(O)CC1` [Compound 44, N^1-(4-chlorophenyl)-N^4-(3-(4-hydroxypiperidin-1-yl)propyl)succinamide] returned a melting point of 154 to 155 °C. Further, the CC50 at 3 days in series [1] is approximately 109 µM. In addition, the half-maximal inhibitory concentration (IC50) in series [2] was more than 109 µM. In series [3], this compound yielded a CC50 at 4 days of more than 109 µM.
Regarding `Cc1nc(C(NC(=O)C(=O)Nc2ccc(C(F)(F)F)cc2)C2CCCCN2)sc1CO.Cl.Cl` (centres unmarked) [Compound 20, N^1-((5-(hydroxymethyl)-4-methylthiazol-2-yl)(piperidin-2-yl)methyl)-N^2-(4-(trifluoromethyl)phenyl)oxalamide.2HCl], the IC50 in series [4] was 4.6 ± 0.3 µM. In addition, the CC50 in the series with TZM-bl cells (setting [6]) and in the series on MT-2 cells (setting [5]) was more than 75.5 µM in each case. In the series on TZM-bl cells, the “% toxicity at that dose” value is given as 10%.
Take `Cc1nccn1CCCNC(=O)CCC(=O)Nc1ccc(Cl)cc1` [Compound 49, N^1-(4-chlorophenyl)-N^4-(3-(2-methyl-1H-imidazol-1-yl)propyl)succinamide. HCOOH]: the IC50 in series [4] was more than 38 µM. Moreover, the figures for the half-maximal cytotoxic concentration (CC50) in the series with TZM-bl cells and in the series with MT-2 cells were 102 µM and more than 102 µM, respectively.
Consider `CN1CCN(C(=O)CNC(=O)CCC(=O)Nc2ccc(Cl)cc2)CC1` [Compound 47, N^1-(4-chlorophenyl)-N^4-(2-(4-methylpiperazin-1-yl)-2-oxoethyl)succinamide .HCOOH], for which, in series [4], the IC50 is approximately 48 µM. Besides, the 50% cytotoxic concentration (CC50) in the series on TZM-bl cells was approximately 36 µM; in the series with MT-2 cells it was approximately 97 µM.
As for `Cc1nc(C(NC(=O)C(=O)Nc2ccc(Cl)cc2)C2CCNCC2)sc1CO` (centres unmarked) [Compound 8, N^1-(4-chlorophenyl)-N^2-((5-(hydroxymethyl)-4-methylthiazol-2-yl)(piperidin-4-yl)methyl)oxalamide.2HCl], the half-maximal inhibitory concentration (IC50) in series [4] amounted to 29.8 ± 3.5 µM. For the same compound, the values for the CC50 with TZM-bl cells and in the series with MT-2 cells were approximately 81 µM and more than 81 µM, respectively.
With `Cc1nc2ncccn2c1CN1CCC(NC(=O)CCC(=O)Nc2ccc(Cl)cc2)CC1` [Compound 50, N^1-(4-chlorophenyl)-N^4-(1-((2-methylimidazo[1,2-a]pyrimidin-3-yl)methyl)piperidin-4-yl)succinamide], the CC50 at 3 days in series [1] is more than 88 µM. Besides, the concentration for half-maximal inhibition (IC50) in series [2] was more than 33 µM. The compound also yielded a half-maximal cytotoxic concentration (CC50) at 4 days in series [3] of more than 88 µM.
In the case of `Cc1nc(C(NC(=O)C(=O)Nc2ccc(Cl)cc2)C2CCCN2)sc1CO` (centres unmarked) [Compound 14, N^1-(4-chlorophenyl)-N^2-((5-(hydroxymethyl)-4-methylthiazol-2-yl)(pyrrolidin-2-yl)methyl)oxalamide.HCOOH], in series [4], the IC50 worked out at 15.4 ± 2.6 µM. The values for the CC50 in the series with TZM-bl cells and in the series on MT-2 cells were 12.4 ± 0.7 µM and approximately 45 µM, respectively.
On to `Cc1nc(C(NC(=O)C(=O)Nc2ccc(F)cc2)C2CCCCN2)sc1CO.Cl` (centres unmarked) [Compound 25, N^1-(4-fluorophenyl)-N^2-((5-(hydroxymethyl)-4-methylthiazol-2-yl)(piperidin-2-yl)methyl)oxalamide.HCl], for which the IC50 in series [4] stood at 48 ± 5.5 µM. For the same compound, the figures for the half-maximal cytotoxic concentration (CC50) in the series with TZM-bl cells and in the series on MT-2 cells were more than 90 µM and more than 113 µM, respectively. For the same compound, in the series with TZM-bl cells, the “% toxicity at that dose” value is on record as 0%.

The term CC50 denotes the concentration giving 50% cytotoxicity. As a reminder, the melting point is the temperature, or range, at which the solid turns liquid. Usually IC50 stands for the midpoint of a concentration-inhibition curve.
